The NIST ThermoML archive (doi:10.1021/acs.jced.8b00008)

Conditions: for viscosity / speed of sound / mass density: 102 kPa, Liquid; for viscosity: Concentric cylinders viscometry; for speed of sound: Single path-length method; for mass density: Vibrating tube method; for surface tension liquid-gas: Pendant drop shape

CCCCCCCCCCCC [dodecane]
Conditions	mass density [kg/m3]	speed of sound [m/s]	surface tension liquid-gas [mN/m]	viscosity [mPa·s]
293.15 K	748.73	1297.7	–	1.49
294.6 K	–	–	25	–
298.15 K	745.11	–	–	1.36
303.15 K	741.77	1259	–	1.26
313.15 K	734.87	1221.1	–	1.06
323.15 K	726.88	1183.9	–	0.925
333.15 K	719.53	1147.6	–	0.795

CCCCCCCCCCCCCCCC [hexadecane]
Conditions	mass density [kg/m3]	speed of sound [m/s]	surface tension liquid-gas [mN/m]	viscosity [mPa·s]
293.15 K	773.37	1357.4	–	3.47
296.1 K	–	–	26.9	–
298.15 K	769.89	1338.6	–	3.06
303.15 K	766.43	1319.7	–	2.76
313.15 K	759.51	1282.9	–	2.23
323.15 K	752.6	1247.1	–	1.86
333.15 K	745.69	1212.2	–	1.56

CCC1CCCCC1 [ethylcyclohexane]
Conditions	mass density [kg/m3]	speed of sound [m/s]	surface tension liquid-gas [mN/m]	viscosity [mPa·s]
293.15 K	787.98	1292.9	–	0.858
295.6 K	–	–	25.3	–
303.15 K	779.91	1249.9	–	0.725
313.15 K	771.79	1208	–	0.649
323.15 K	763.6	1166.9	–	0.572
333.15 K	755.36	1126.9	–	0.504

CC1CCCCC1 [methylcyclohexane]
Conditions	mass density [kg/m3]	speed of sound [m/s]	surface tension liquid-gas [mN/m]	viscosity [mPa·s]
291.1 K	–	–	23.7	–
293.15 K	769.3	1236.5	–	0.74
298.15 K	764.99	1214.5	–	0.685
303.15 K	760.64	1192.3	–	0.633
313.15 K	751.92	1149.2	–	0.572
323.15 K	743.13	1106.9	–	0.489
333.15 K	734.25	1065.7	–	0.44
